# Source: US7541341B2, “Glucopyranosyloxybenzylbenzene derivatives and medicinal use thereof” (Kissei Pharmaceutical Co., Ltd., priority 2001, dated 2009)
# pIC50: −log10 of the molar value.
# Assays:
# SD rat = test: Acute toxicity test; type: in vivo; conditions: oral 1000 mg/kg; male SD rat, 5 animals in each group; observation for 24 hours
# Protocol: A 100 mg/mL suspension was prepared by adding 0.5% sodium carboxymethylcellulose solution to a test compound. Five week old male SD rat (CLEA JAPAN, INC., 124-128 g, 5 animals in each group) were used as test animals after fasted overnight. The above-mentioned suspension was orally administered at the dose 10 mL/kg (1000 mg/kg) to the test animals, and observation was performed for 24 hours.
# SD rats = test: Assay for the facilitatory effect on urinary glucose excretion; type: in vivo; conditions: fasted male SD rats, sucrose 2.5 g/kg load, 24 hours urine
# Protocol: Assay for the Facilitatory Effect on Urinary Glucose Excretion
# As experimental animals, overnight fasted SD rats (Japan SLC. Inc., male, 7-8 weeks of age, 205-272 g) were used. A Test compound was suspended in 0.5% sodium carboxymethylcellulose solution at the concentration of 2 mg/mL. When a homogenous suspension was not obtained in this condition, the test compound was dissolved in ethanol at the concentration of 100 mg/mL of its active form and then 2 mg/mL suspension was obtained by adding this solution to 49 times volumes of 0.5% sodium carboxymethylcellulose solution. Apart of this suspension was diluted with 0.5% sodium carboxymethylcellulose solution and then 0.6 and 0.2 mg/mL suspensions were prepared. After the body weights of rats were measured, the test suspension was orally administered at the dose of 5 mL/kg (1, 3 and 10 mg/kg). For control, just only 0.5% sodium carboxymethylcellulose solution was orally administered at the dose of 5 mL/kg. Immediately after this oral administration, 500 g/L sucrose solution was orally administered at the dose of 5 mL/kg (2.5 g/kg). The oral administration was performed with gastric tube for rat and 2.5 mL syringe. The head count in one group was 3. Collection of urine was performed in metabolic cage after the sucrose administration was finished. The sampling time for collection of urine was 24 hours after the sucrose administration. After collection of urine was finished, the urine volume was recorded and the urinary glucose concentration was measured. The glucose concentration was measured with a kit for laboratory test: Glucose B-Test WAKO (Wako Pure Chemical Industries, Ltd.). The amount of urinary glucose excretion in 24 hours per 200 g of body weight was calculated from urine volume, urinary glucose concentration and body weight.
# human SGLT2 = molecular target: T1, human SGLT2 (Homo sapiens, UniProt P31639, I433V); test: Assay for inhibitory effect on human SGLT2 activity (uptake of methyl-α-D-glucopyranoside in COS-7 cells transiently expressing human SGLT2); type: cell-based; conditions: methyl-α-D-(U-14C)glucopyranoside uptake, 37° C., 2 hours
# T1 construct: expressed in transfected cells; host or cells: COS-7 cells (RIKEN CELL BANK RCB0539), transient, electroporation of KL29
# T1 sequence (P31639 1-672 I433V): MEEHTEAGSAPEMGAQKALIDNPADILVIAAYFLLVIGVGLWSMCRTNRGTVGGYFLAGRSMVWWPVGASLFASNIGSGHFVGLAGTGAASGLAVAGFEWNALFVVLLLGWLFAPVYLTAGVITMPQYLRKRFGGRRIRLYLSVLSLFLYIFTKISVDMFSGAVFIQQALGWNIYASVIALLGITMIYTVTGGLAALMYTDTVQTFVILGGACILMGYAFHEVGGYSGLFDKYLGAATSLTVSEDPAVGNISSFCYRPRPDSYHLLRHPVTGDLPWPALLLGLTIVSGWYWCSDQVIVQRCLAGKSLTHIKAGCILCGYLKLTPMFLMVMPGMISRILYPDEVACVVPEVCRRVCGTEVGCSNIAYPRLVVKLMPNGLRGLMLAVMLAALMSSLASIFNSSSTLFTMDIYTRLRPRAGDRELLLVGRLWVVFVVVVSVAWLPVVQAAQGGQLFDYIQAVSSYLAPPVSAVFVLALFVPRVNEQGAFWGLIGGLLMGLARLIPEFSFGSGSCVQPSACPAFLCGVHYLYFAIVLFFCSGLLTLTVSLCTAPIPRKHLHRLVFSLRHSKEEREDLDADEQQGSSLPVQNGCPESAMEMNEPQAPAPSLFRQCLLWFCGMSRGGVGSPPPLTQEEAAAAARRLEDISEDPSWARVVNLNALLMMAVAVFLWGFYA
# Protocol: Assay for Inhibitory Effect on Human SGLT2 Activity
# 1) Construction of the Plasmid Vector Expressing Human SGLT2
# Preparation of the cDNA library for PCR amplification was performed by reverse transcription of a total RNA deprived from human kidney (Ori gene) with oligo dT as the primer, using […] Preamplification System (Gibco-BRL: LIFE TECHNOLOGIES). The DNA fragment coding for human SGLT2 was amplified by the PCR reaction, in which the human kidney cDNA library described above was used as the template and the following oligo nucleotides 0702F and 0712R, presented as SEQ ID NO:1 and SEQ ID NO:2 respectively, were used as the primers. The amplified DNA fragment was ligated into pCR-Blunt (Invitrogen), a vector for cloning, according to standard method of the kit. The Escherichia coli HB101 was transformed according to usual method and then selection of the transformants was performed on the LB agar medium containing 50 μg/mL of kanamycin. […] After plasmid DNA was extracted and purified from this transformant, the base sequence of the DNA fragment inserted at the multi-cloning sites of the vector pcDNA3.1 (−) Myc/His-B was analyzed. […]
SMILES,Number of death (SD rat),Amount of urinary glucose excretion (SD rats; oral dose 1 mg/kg),Amount of urinary glucose excretion (SD rats; oral dose 3 mg/kg),Amount of urinary glucose excretion (SD rats; oral dose 10 mg/kg),pIC50 (human SGLT2)
"CCOC(=O)OC[C@H]1O[C@@H](Oc2cc(CO)ccc2Cc2ccc(CC)cc2)[C@H](O)[C@@H](O)[C@@H]1O [Example 1, 2-(4-Ethylbenzyl)-5-hydroxymethylphenyl 6-O-ethoxycarbonyl-β-D-glucopyranoside]",0/5,7.0 mg/24 hours/200 g body weight,82.1 mg/24 hours/200 g body weight,195.8 mg/24 hours/200 g body weight,
"CC(=O)OCCc1ccc(Cc2ccccc2O[C@@H]2O[C@H](COC(C)=O)[C@@H](O)[C@H](O)[C@H]2O)cc1 [Example 40, 2-[4-(2-Acetoxyethyl)benzyl]phenyl 6-O-acetyl-β-D-glucopyranoside]",,0.0 mg/24 hours/200 g body weight,4.1 mg/24 hours/200 g body weight,55.9 mg/24 hours/200 g body weight,
"OCC=Cc1ccc(Cc2ccccc2OC2OC(CO)C(O)C(O)C2O)cc1 [Reference Example 49, (E)-2-[4-(3-Hydroxy-1-prop-1-en-1-yl)benzyl]phenyl β-D-glucopyranoside]",,,,,6.92
